Data from patent publication US12240862B2, “Inhibitors of peptidylarginine deiminases” (Gilead Sciences, Inc., priority 2020, dated 2025).
pIC50: −log10 of the molar value.

Biological target: T1, human PAD4 (Homo sapiens, UniProt Q9UM07)
T1 construct: human PAD4 (NM_012387), A2P663, was PCR amplified; His-SUMO (N, cleaved yes); made in house; host or cells: E. coli BL21(DE3)
Assay: In vitro PAD4 BAEE biochemical assay
Details: human PAD4, BAEE substrate; 5 nM PAD4, 2 mM calcium chloride, 3 mM BAEE; geometric mean of multiple experiments
In short: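 Tag-free recombinant hPAD4 (5 nM), 2 mM CaCl2, 3 mM BAEE, 50 mM MOPS pH 7.6, 2 mM DTT; 30 min compound preincubation, 2 h reaction, all 25 °C. EDTA quench; ammonia read via o-phthalaldehyde amine coupling, 1 h.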

T1 sequence (Q9UM07 2-663): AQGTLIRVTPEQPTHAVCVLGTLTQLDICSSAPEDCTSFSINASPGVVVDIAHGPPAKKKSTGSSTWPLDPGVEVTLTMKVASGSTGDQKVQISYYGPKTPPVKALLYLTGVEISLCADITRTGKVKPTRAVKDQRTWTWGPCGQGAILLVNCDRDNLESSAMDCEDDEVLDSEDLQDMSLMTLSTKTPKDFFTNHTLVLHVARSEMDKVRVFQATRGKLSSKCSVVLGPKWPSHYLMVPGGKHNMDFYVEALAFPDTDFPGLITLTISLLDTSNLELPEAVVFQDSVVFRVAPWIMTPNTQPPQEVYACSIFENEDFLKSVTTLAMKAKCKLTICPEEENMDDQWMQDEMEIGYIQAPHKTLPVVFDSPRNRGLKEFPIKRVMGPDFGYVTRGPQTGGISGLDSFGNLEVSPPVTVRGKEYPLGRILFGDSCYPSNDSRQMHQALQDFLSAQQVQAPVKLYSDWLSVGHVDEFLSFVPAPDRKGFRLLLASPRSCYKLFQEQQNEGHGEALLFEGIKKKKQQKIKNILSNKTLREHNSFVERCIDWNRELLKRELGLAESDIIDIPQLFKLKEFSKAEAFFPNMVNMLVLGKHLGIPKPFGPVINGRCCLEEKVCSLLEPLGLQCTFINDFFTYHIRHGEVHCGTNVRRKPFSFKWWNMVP

Row | pIC50 | Compound
1 | 7.16 | COc1cc(C(=O)N2[C@H]3CC[C@@H]2[C@H](N)C3)cc2nc(-c3cc4ccc([C@@H](C)NC(=O)C5CCC(F)(F)CC5)nc4n3CC3CC3)c(C)n12 [Example 66, ~{N}-[(1~{R})-1-[2-[7-[(1~{R},2~{R},4~{S})-2-amino-7-azabicyclo [2.2.1]heptane-7-carbonyl]-5-methoxy-3-methylimidazo [1,2-a]pyridin-2-yl]-1-(cyclopropylmethyl)pyrrolo[2,3-b]pyridin-6-yl]ethyl]-4,4-difluorocyclohexane-1-carboxamide]
2 | 6.47 | COc1cc(C(=O)N2[C@H]3CC[C@@H]2[C@H](N)[C@H](O)C3)cc2nc(-c3cc4ccc(N(C(F)F)S(C)(=O)=O)nc4n3CC3CC3)c(C)n12 [Example 416, ~{N}-[2-[7-[(1~{R},2~{S},3~{R}, 5~{S})-2-amino-3-hydroxy-8-azabicyclo[3.2.1]octane-8-carbonyl]-5-methoxy-3-methylimidazo[1,2-a]pyridin-2-yl]-1-(cyclopropylmethyl)pyrrolo [2,3-b]pyridin-6-yl]-~{N}-(difluoromethyl) methanesulfonamide]
3 | 7.07 | COC(=O)N(C)c1ccc2cc(-c3nc4cc(C(=O)N5[C@H]6CC[C@@H]5[C@H](N)C6)cc(OC)n4c3C)n(CC3CC3)c2n1 [Example 465, methyl~{N}-[2-[7-[(1~{R},2~{R},4~{S})-2-amino-7-azabicyclo[2.2.1]heptane-7-carbonyl]-5-methoxy-3-methylimidazo [1,2-a]pyridin-2-yl]-1-(cyclopropylmethyl)pyrrolo [2,3-b]pyridin-6-yl]-~{N}-methylcarbamate]
4 | 6.21 | COc1cc(C(=O)N2[C@H]3CC[C@@H]2[C@H](N)C3)cc2nc(-c3cc4ccc(C5CCCN(C(=O)C(C)(C)C)C5)nc4n3CC3CC3)c(C)n12 (stereo partly shown) [Example 517, 1-[3-[2-[7-[(1~{R},2~{R}, 4~{S})-2-amino-7-azabicyclo[2.2.1]heptane-7-carbonyl]-5-methoxy-3-methylimidazo[1,2-a]pyridin-2-yl]-1-(cyclopropylmethyl)pyrrolo[2,3-b]pyridin-6-yl]piperidin-1-yl]-2,2-dimethylpropan-1-one]
5 | 7.27 | COc1cc(C(=O)N2[C@H]3CC[C@@H]2[C@H](N)C3)cc2nc(-c3cc4ccc([C@@H](C)NC(=O)CS(C)(=O)=O)nc4n3CC3CC3)c(C)n12 [Example 154, ~{N}-[(1~{R})-1-[2-[7-[(1~{R},2~{R},4~{S})-2-amino-7-azabicyclo[2.2.1]heptane-7-carbonyl]-5-methoxy-3-methylimidazo [1,2-a]pyridin-2-yl]-1-(cyclopropylmethyl)pyrrolo[2,3-b]pyridin-6-yl]ethyl]-2-methylsulfonylacetamide]
6 | 7.07 | COc1cc(C(=O)N2[C@H]3CC[C@@H]2[C@H](N)C3)cc2nc(-c3cc4ccc(N(C(F)F)S(C)(=O)=O)nc4n3CC3CC3)c(C)n12 [Example 389, N-(2-(7-((1R,2R,4S)-2-amino-7-azabicyclo[2.2.1]heptane-7-carbonyl)-5-methoxy-3-methylimidazo[1,2-a]pyridin-2-yl)-1-(cyclopropylmethyl)-1H-pyrrolo[2,3-b]pyridin-6-yl)-N-(difluoromethyl)methanesulfonamide]
7 | 7.19 | COc1cc(C(=O)N2[C@H]3CC[C@@H]2[C@H](N)C3)cc2nc(-c3cc4ccc([C@@H](C)NC(=O)NC5(C)CC(F)(F)C5)nc4n3CC3CC3)c(C)n12 [Example 212, 1-[(1~{R})-1-[2-[7-[(1~{R},2~{R},4~{S})-2-amino-7-azabicyclo[2.2.1]heptane-7-carbonyl]-5-methoxy-3-methylimidazo [1,2-a]pyridin-2-yl]-1-(cyclopropylmethyl)pyrrolo [2,3-b]pyridin-6-yl]ethyl]-3-(3,3-difluoro-1-methylcyclobutyl)urea]
8 | 7.08 | COc1cc(C(=O)N2[C@H]3CC[C@@H]2[C@H](N)C3)cc2nc(-c3cc4ccc([C@@H](C)N5CCNC5=O)nc4n3CC3CC3)c(C)n12 [Example 273, 1-[(1~{R})-1-[2-[7-[(1~{R},2~{R},4~{S})-2-amino-7-azabicyclo[2.2.1]heptane-7-carbonyl]-5-methoxy-3-methylimidazo [1,2-a]pyridin-2-yl]-1-(cyclopropylmethyl)pyrrolo [2,3-b]pyridin-6-yl]ethyl] imidazolidin-2-one]
9 | 6.94 | CCc1ccc2cc(-c3nc4cc(C(=O)N5[C@H]6CC[C@@H]5[C@H](N)C6)cc(OC)n4c3C)n(CC3CC3C)c2n1 (stereo partly shown) [Example 503, [(1~{R},2~{R},4~{S})-2-amino-7-azabicyclo [2.2.1]heptan-7-yl]-[2-[6-ethyl-1-[(2-methylcyclopropyl)methyl]pyrrolo[2,3-b]pyridin-2-yl]-5-methoxy-3-methylimidazo[1,2-a]pyridin-7-yl]methanone]
10 | 6.91 | COc1cc(C(=O)N2[C@H]3CC[C@@H]2[C@H](N)C3)cc2nc(-c3cc4ccc([C@@H](C)Nc5cnn(C(C)(C)C)c5)nc4n3CC3CC3)c(C)n12 [Example 260, [(1~{R},2~{R},4~{S})-2-amino-7-azabicyclo[2.2.1]heptan-7-yl]-[2-[6-[(1~{R})-1-[(1-~{tert}-butylpyrazol-4-yl)amino]ethyl]-1-(cyclopropylmethyl)pyrrolo [2,3-b]pyridin-2-yl]-5-methoxy-3-methylimidazo [1,2-a]pyridin-7-yl] methanone]
11 | 6.73 | COc1cc(C(=O)N2[C@H]3CC[C@@H]2[C@H](N)C3)cc2nc(-c3cc4ccc(N5[C@@H](C(F)(F)F)CCCS5(=O)=O)nc4n3CC3CC3)c(C)n12 [Example 447, [(1~{R},2~{R},4~{S})-2-amino-7-azabicyclo [2.2.1]heptan-7-yl]-[2-[1-(cyclopropylmethyl)-6-[(3~{R})-1,1-dioxo-3-(trifluoromethyl)thiazinan-2-yl]pyrrolo[2,3-b]pyridin-2-yl]-5-methoxy-3-methylimidazo[1,2-a]pyridin-7-yl]methanone]
12 | 6.00 | COc1cc(C(=O)N2CCC[C@@H](N)C2)cc2nc(-c3cc4ccc(C(C)(F)F)nc4n3CC3CC3)c(C)n12 [Example 596, [(3~{R})-3-aminopiperidin-1-yl]-[2-[1-(cyclopropylmethyl)-6-(1,1-difluoroethyl)pyrrolo [2,3-b]pyridin-2-yl]-5-methoxy-3-methylimidazo [1,2-a]pyridin-7-yl] methanone]
13 | 7.51 | COc1cc(C(=O)N2[C@H]3CC[C@@H]2[C@H](N)C3)cc2nc(-c3cc4ccc([C@@H](C)NC(=O)c5ccnc(C(F)F)c5)nc4n3CC3CC3)c(C)n12 [Example 50, ~{N}-[(1~{R})-1-[2-[7-[(1~{R},2~{R},4~{S})-2-amino-7-azabicyclo[2.2.1]heptane-7-carbonyl]-5-methoxy-3-methylimidazo [1,2-a]pyridin-2-yl]-1-(cyclopropylmethyl)pyrrolo[2,3-b]pyridin-6-yl]ethyl]-2-(difluoromethyl)pyridine-4-carboxamide]
14 | 4.75 | COc1cc(C(=O)N(C)C)cc2nc(-c3cc4ccc([C@@H](C)N(C)C(=O)c5ccccc5)nc4n3CC3CC3)c(C)n12 [Example 184, 2-[6-[(1~{R})-1-[benzoyl (methyl)amino]ethyl]-1-(cyclopropylmethyl)pyrrolo [2,3-b]pyridin-2-yl]-5-methoxy-~{N},~{N},3-trimethylimidazo[1,2-a] pyridine-7-carboxamide]
15 | 6.05 | CNC(=O)COc1ccc2cc(-c3nc4cc(C(=O)N5CCC[C@@H](N)C5)cc(OC)n4c3C)n(CC3CC3)c2n1 [Example 622, 2-[2-[7-[(3~{R})-3-aminopiperidine-1-carbonyl]-5-methoxy-3-methylimidazo[1,2-a]pyridin-2-yl]-1-(cyclopropylmethyl)pyrrolo [2,3-b]pyridin-6-yl] oxy-~{N}-methylacetamide]
16 | 4.33 | COc1cc(C(=O)N2C[C@@H]3CCNCC32)cc2nc(-c3cc4ccc(N(C(F)F)S(C)(=O)=O)nc4n3CC3CC3)c(C)n12 (stereo partly shown) [Example 287, ~{N}-[1-(cyclopropylmethyl)-2-[7-[(6~{S},8~{R})-3,8-diazabicyclo[4.2.0]octane-8-carbonyl]-5-methoxy-3-methylimidazo[1,2-a]pyridin-2-yl]pyrrolo[2,3-b]pyridin-6-yl]-~{N}-(difluoromethyl) methanesulfonamide]
17 | 6.69 | CS(=O)(=O)N(c1ccc2cc(-c3nc4cc(C(=O)N5[C@@H]6CC[C@@H](N)[C@H]5CC6)ccn4c3CC3CC3)n(CC3CC3)c2n1)C(F)F [Example 436, ~{N}-[2-[7-[(1~{R},2~{R}, 5~{R})-2-amino-8-azabicyclo[3.2.1]octane-8-carbonyl]-3-(cyclopropylmethyl)imidazo [1,2-a]pyridin-2-yl]-1-(cyclopropylmethyl)pyrrolo [2,3-b]pyridin-6-yl]-~{N}-(difluoromethyl) methanesulfonamide]
18 | 7.42 | COc1cc(C(=O)N2[C@H]3CC[C@@H]2[C@H](N)C3)cc2nc(-c3cc4ccc([C@@H](C)NC(=O)[C@H](C)O)nc4n3CC3CC3)c(C)n12 [Example 94, (2~{S})-~{N}-[(1~{R})-1-[2-[7-[(1~{R},2~{R},4~{S})-2-amino-7-azabicyclo [2.2.1]heptane-7-carbonyl]-5-methoxy-3-methylimidazo [1,2-a]pyridin-2-yl]-1-(cyclopropylmethyl)pyrrolo [2,3-b]pyridin-6-yl]ethyl]-2-hydroxypropanamide]

Row | Compound | pIC50
19 | COc1cc(C(=O)N2[C@H]3CC[C@@H]2[C@H](N)C3)cc2nc(-c3cc4ccc([C@@H](C)NC(=O)CCC(=O)O)nc4n3CC3CC3)c(C)n12 [Example 163, 4-[[(1~{R})-1-[2-[7-[(1~{R},2~{R},4~{S})-2-amino-7-azabicyclo[2.2.1]heptane-7-carbonyl]-5-methoxy-3-methylimidazo [1,2-a]pyridin-2-yl]-1-(cyclopropylmethyl)pyrrolo [2,3-b]pyridin-6-yl]ethyl]amino]-4-oxobutanoic acid] | 7.72
